Several values for one entry are separate records, joined by “and”; a condition that tells them apart may be missing. Equal entries are not always repeated. Where two headings read alike, the source gives them in different places.
Assays:
C. elegans unc-17(e245) = conditions: for development average norm L4/As / viability Avg: CB245 unc-17(e245); for nemacol-1 x ivermectin matrix dose-response raw data: unc-17(e245) + 0 uM nemacol, 3 replicate columns
C. elegans DA1316 = test: C. elegans 3-day liquid viability assay, DA1316 avr-14; avr-15; […]; format: in vivo, Caenorhabditis elegans; conditions: DA1316, nemacol-1 0
Haemonchus contortus = Haemonchus contortus L3 Migration Trap Assay (motility, 24 h exposure); conditions: hc weybridge, 24 h; for raw: raw motility readout
C. elegans = C. elegans 3-day liquid viability assay, Nemacol-1 x Ivermectin matrix, wild type; conditions: for development average norm L4/As / viability Avg / average progress to L4 (development) / average viability (relative to control): N2; for average progress to L4 (development) / average viability (relative to control): Nemacol-1-1 0; for nemacol-1 x ivermectin matrix dose-response raw data: wt (N2) + 0 uM nemacol, 3 replicate columns
[1] = ivermectin 0.001875 uM (row head 1.875)
[2] = ivermectin 0.00375 uM (row head 3.75)
[3] = ivermectin 0.06 uM (row head 60)
[4] = ivermectin 0.0195312 µM + Nemacol_53 26.4 µM
[5] = ivermectin 0.0195312 µM + Nemacol_53 16.8 (unit not given)
[6] = ivermectin 0.078125 µM + Nemacol_53 26.4 µM
[7] = ivermectin 0.078125 µM + Nemacol_53 16.8 (unit not given)
[8] = ivermectin 5 µM + Nemacol_53 16.8 (unit not given)
[9] = ivermectin 0.00046875 uM (Fig. 5AC sheet)
[10] = ivermectin 0.0009375 uM (Fig. 5AC sheet)
[11] = ivermectin 0.001875 uM (Fig. 5AC sheet)
[12] = ivermectin 0.00375 uM (Fig. 5AC sheet)
[13] = ivermectin 0.03 uM (Fig. 5AC sheet)
[14] = ivermectin 0.06 uM (Fig. 5AC sheet)

CC[C@H](C)[C@H]1O[C@]2(CC[C@@H]1C)C[C@@H]1C[C@@H](C/C=C(\C)[C@@H](O[C@H]3C[C@H](OC)[C@@H](O[C@H]4C[C@H](OC)[C@@H](O)[C@H](C)O4)[C@H](C)O3)[C@@H](C)/C=C/C=C3\CO[C@@H]4[C@H](O)C(C)=C[C@@H](C(=O)O1)[C@]34O)O2 [ivermectin]
development average norm L4/As (C. elegans unc-17(e245); ivermectin 0.00046875 uM): 91.4
viability Avg (C. elegans unc-17(e245); ivermectin 0.00046875 uM): 0.92
development average norm L4/As (C. elegans unc-17(e245); ivermectin 0.0009375 uM): 102.0
viability Avg (C. elegans unc-17(e245); ivermectin 0.0009375 uM): 1.02
development average norm L4/As (C. elegans unc-17(e245); ivermectin 0.001875 uM): 96.6
viability Avg (C. elegans unc-17(e245); ivermectin 0.001875 uM): 0.97
development average norm L4/As (C. elegans unc-17(e245); ivermectin 0.00375 uM): 94.6
viability Avg (C. elegans unc-17(e245); ivermectin 0.00375 uM): 0.95
development average norm L4/As (C. elegans unc-17(e245); ivermectin 0.03 uM): 1.1
viability Avg (C. elegans unc-17(e245); ivermectin 0.03 uM): 0.03
development average norm L4/As (C. elegans unc-17(e245); ivermectin 0.06 uM): 0.0
viability Avg (C. elegans unc-17(e245); ivermectin 0.06 uM): 0.00
nemacol-1 x ivermectin matrix dose-response raw data (C. elegans unc-17(e245); [1]): 100.0 and 98.2 and 92.0
nemacol-1 x ivermectin matrix dose-response raw data (C. elegans unc-17(e245); [2]): 94.6 and 102.2 and 87.1
nemacol-1 x ivermectin matrix dose-response raw data (C. elegans unc-17(e245); [3]): 0.0
total animals normalized to corresponding controls (C. elegans DA1316; ivermectin 0.0009375 uM): 111.56
total animals normalized to corresponding controls (C. elegans DA1316; ivermectin 0.001875 uM): 102.36
total animals normalized to corresponding controls (C. elegans DA1316; ivermectin 0.00375 uM): 113.75
total animals normalized to corresponding controls (C. elegans DA1316; ivermectin 0.03 uM): 108.02
total animals normalized to corresponding controls (C. elegans DA1316; ivermectin 0.06 uM): 93.85
efficacy (Haemonchus contortus; [4]): 51.6335 and 46.2111 and 62.2283
efficacy (Haemonchus contortus; [5]): 45.9092 and 67.7834 and 50.4898
efficacy (Haemonchus contortus; [6]): 64.6293 and 71.8721 and 59.357
efficacy (Haemonchus contortus; [7]): 51.0321 and 52.0838 and 33.3542
efficacy (Haemonchus contortus; ivermectin 0.078125 µM alone): 36.1803 and 63.8058 and 55.3013
efficacy (Haemonchus contortus; ivermectin 0.3125 µM + Nemacol_53 26.4 µM): 79.9766 and 60.2317 and 86.7864
efficacy (Haemonchus contortus; ivermectin 0.3125 µM + Nemacol_53 16.8 (unit not given)): 66.3699 and 69.3635 and 88.9679
efficacy (Haemonchus contortus; ivermectin 0.3125 µM alone): 59.3102 and 77.8029 and 70.3944
efficacy (Haemonchus contortus; ivermectin 1.25 µM + Nemacol_53 26.4 µM): 80.8981 and 87.2376 and 93.0175
efficacy (Haemonchus contortus; ivermectin 1.25 µM + Nemacol_53 16.8 (unit not given)): 94.1091 and 79.6798 and 82.4964
efficacy (Haemonchus contortus; ivermectin 1.25 µM alone): 87.3643 and 74.9707 and 86.5339
efficacy (Haemonchus contortus; ivermectin 5 µM + Nemacol_53 26.4 µM): 82.4313 and 91.8131 and 94.4761
efficacy (Haemonchus contortus; [8]): 92.0083 and 91.7168 and 89.2099
efficacy (Haemonchus contortus; ivermectin 5 µM alone): 83.6288 and 93.388 and 88.8663
efficacy (Haemonchus contortus; ivermectin 20 µM + Nemacol_53 26.4 µM): 86.7838 and 88.1791 and 95.9929
efficacy (Haemonchus contortus; ivermectin 20 µM + Nemacol_53 16.8 (unit not given)): 95.5746 and 77.0116 and 89.754
efficacy (Haemonchus contortus; ivermectin 20 µM alone): 95.1061 and 89.4651 and 83.7772
raw (Haemonchus contortus; ivermectin 0.0012207 µM + Nemacol_53 26.4 µM): 51596.5 and 71143.5 and 66277.5
raw (Haemonchus contortus; ivermectin 0.0012207 µM + Nemacol_53 16.8 (unit not given)): 67834.5 and 50419 and 52275.5
raw (Haemonchus contortus; ivermectin 0.0012207 µM alone): 49240 and 71073.5 and 61317
raw (Haemonchus contortus; ivermectin 0.00488281 µM + Nemacol_53 26.4 µM): 28751.5 and 44196 and 37912.5
raw (Haemonchus contortus; ivermectin 0.00488281 µM alone): 43303 and 44672.5 and 57159.5
raw (Haemonchus contortus; [4]): 27870 and 30994.5 and 21765
raw (Haemonchus contortus; [5]): 31168.5 and 18564 and 28529
raw (Haemonchus contortus; ivermectin 0.0195312 µM alone): 32641 and 25525.5 and 49250.5
raw (Haemonchus contortus; [6]): 20381.5 and 16208 and 23419.5
raw (Haemonchus contortus; [7]): 28216.5 and 27610.5 and 38403
raw (Haemonchus contortus; ivermectin 0.078125 µM alone): 36774.5 and 20856 and 25756.5
raw (Haemonchus contortus; ivermectin 0.3125 µM alone): 23446.5 and 12790.5 and 17059.5
raw (Haemonchus contortus; ivermectin 1.25 µM alone): 7281 and 14422.5 and 7759.5
raw (Haemonchus contortus; [8]): 4605 and 4773 and 6217.5
development average norm L4/As (C. elegans; [9]): 99.0
viability Avg (C. elegans; [9]): 0.99
development average norm L4/As (C. elegans; [10]): 105.0
viability Avg (C. elegans; [10]): 1.05
average progress to L4 (development) (C. elegans; ivermectin 0.0009375 uM): 107.265
average viability (relative to control) (C. elegans; ivermectin 0.0009375 uM): 1.077
development average norm L4/As (C. elegans; [11]): 102.7
viability Avg (C. elegans; [11]): 1.03
average progress to L4 (development) (C. elegans; ivermectin 0.001875 uM): 88.2297
average viability (relative to control) (C. elegans; ivermectin 0.001875 uM): 0.8852
development average norm L4/As (C. elegans; [12]): 101.8
viability Avg (C. elegans; [12]): 1.03
average progress to L4 (development) (C. elegans; ivermectin 0.00375 uM): 85.4056
average viability (relative to control) (C. elegans; ivermectin 0.00375 uM): 0.8507
development average norm L4/As (C. elegans; [13]): 33.1
viability Avg (C. elegans; [13]): 0.89
average progress to L4 (development) (C. elegans; ivermectin 0.03 uM): 25.8319
average viability (relative to control) (C. elegans; ivermectin 0.03 uM): 0.6373
development average norm L4/As (C. elegans; [14]): 0.0
viability Avg (C. elegans; [14]): 0.11
average progress to L4 (development) (C. elegans; ivermectin 0.06 uM): 0
average viability (relative to control) (C. elegans; ivermectin 0.06 uM): 0.09164
nemacol-1 x ivermectin matrix dose-response raw data (C. elegans; [1]): 131.9 and 90.0 and 88.0
nemacol-1 x ivermectin matrix dose-response raw data (C. elegans; [2]): 106.4 and 120.0 and 114.0
nemacol-1 x ivermectin matrix dose-response raw data (C. elegans; ivermectin 0.03 uM (row head 30)): 48.9 and 56.7 and 24.0
nemacol-1 x ivermectin matrix dose-response raw data (C. elegans; [3]): 12.8 and 13.3 and 2.0

From PMC10066365, “Nemacol is a small molecule inhibitor of C. elegans vesicular acetylcholine transporter with anthelmintic potential” (Nature Communications, 2023)
